Experimental data reported in patent publication US7414075B2, “Composition for lowering internal lipid content” (Ajinomoto Co., Inc., priority 2003, dated 2008).

Columns and labels:
Assay type in all cases: in vivo, rat
male Wistar strain rats [1] = assay: Influence on serum cholesterol and arteriosclerosis index; conditions: 0.1 mmol per kg feed, four weeks, * p<0.05
Description: (§1) Twenty-four nine-week old male Wistar strain rats were used and divided into four groups each comprising six rats, including a control group, a 0.1 mmol/kg capsaicin group, a 0.1 mmol/kg capsinoid group, and a 1.0 mmol/kg capsinoid group. A 20% lard food to which 1% cholesterol was added was administered as a feed to the control group. For the remaining three groups, capsaicin of 0.1 mmol per kg final concentration of the feed, capsinoid of 0.1 mmol per kg final concentration of the feed, and capsinoid of 1.0 mmol per kg final concentration of the feed, respectively, were added to the feed, similar to the control group. The capsinoid was a mixture of 4-hydroxy-3-methoxybenzyl (E)-8-methyl-6-nonenoate and 4-hydroxy-3-methoxybenzyl 8-methylnonanoate in about 2:1 ratio.
(§2) The above groups each comprising six rats were subjected to pair feeding for four weeks. Breeding of the experimental animals was conducted in each individual cage and, during the breeding period, body weight was measured once a week and ingested amount of the feed was calculated by deducting the residue from the administered amount. Feces were collected for three days before dissection. After completion of breeding, the rats were sacrificed and dissected. Blood was collected. The liver, the fat around the kidney, and the fat around the epididymis were each separately excised and weighed. Furthermore, the ratio of the excised organs to the total body weight was calculated. Unless otherwise mentioned, the results in the following tables are shown in terms of mean value±standard deviation and, statistically, test of significance was conducted at p<0.05 by ANOVA and Duncan's multiple range test. In the tables, * means p<0.05.
Blood was collected from the experimental animals bred as above and total cholesterol (T-chol) and HDL cholesterol (HDL-chol) in the serum was measured. More specifically, total cholesterol and HDL cholesterol were measured according to a method disclosed in “Akiko Tsujihara and Yumiko Tani: Influence of yucca saponin and pure konjak powder on lipid metabolism of rats fed with a high-fat and high-cholesterol feed: Eiyo Shokuryo Gakkaishi, vol. 51, pp. 157-163 (1998)”. The Arteriosclerosis index was calculated by (T-chol-HDL-chol)/(HDL-chol). The results are shown in Table 4, including the amount of triglyceride in the serum (TG).

male Wistar strain rats [2] = assay: Excretion of cholesterol into feces during three days before dissection; conditions: 0.1 mmol per kg feed, mean ± SD
Description: as §1
The above groups each comprising six rats were subjected to pair feeding for four weeks. Breeding of the experimental animals was conducted in each individual cage and, during the breeding period, body weight was measured once a week and ingested amount of the feed was calculated by deducting the residue from the administered amount. Feces were collected for three days before dissection. After completion of breeding, the rats were sacrificed and dissected. Blood was collected. […] Furthermore, the ratio of the excised organs to the total body weight was calculated. […]

[3] = Breeding process: body weight and ingested amount of feed in rats on 20% lard food with 1% cholesterol; conditions: 0.1 mmol per kg feed, mean ± SD
Description: as §1, §2

male Wistar strain rats [4] = assay: Weight of liver, fat around kidney and fat around epididymis, and ratio to total body weight; conditions: 0.1 mmol per kg feed, four weeks
Description: as §1, §2

COc1cc(CNC(=O)CCCC/C=C/C(C)C)ccc1O [Capsaicin, capsaicin]
Arteriosclerosis Index (male Wistar strain rats [1]; (T-chol-HDL-chol)/(HDL-chol)): 1.2 ± 0.4
HDL-chol (HDL cholesterol in serum) (male Wistar strain rats [1]; serum, mean ± SD): 34.2 ± 6.5* mg/dl
T-chol (total cholesterol in serum) (male Wistar strain rats [1]; serum, mean ± SD): 71.2 ± 8.1* mg/dl
TG (triglyceride in the serum) (male Wistar strain rats [1]; serum, mean ± SD): 25.5 ± 5.3* mg/dl
Cholesterol in Feces, Excreted Amount (male Wistar strain rats [2]): 240 ± 27 mg/3 days
Cholesterol in Feces, Excreted Rate (male Wistar strain rats [2]): 48.6 ± 3.4%
Body Weight (g) on Dissected Day ([3]; four weeks): 367 ± 12 g
Percentage Increase in Body Weight ([3]; four weeks): 133 ± 4%
Body Weight (g) on Final Day of Breeding ([3]; pair feeding four weeks): 392 ± 11 g
Fat (g) around Epididymis (male Wistar strain rats [4]; mean ± SD): 4.6 ± 0.5 g
Fat (g) around Kidney (male Wistar strain rats [4]; mean ± SD): 3.8 ± 0.6 g
Liver (male Wistar strain rats [4]; mean ± SD): 14.4 ± 0.9 g
Fat (%) around Epididymis (male Wistar strain rats [4]; ratio to total body weight): 1.3 ± 0.1%
Fat (%) around Kidney (male Wistar strain rats [4]; ratio to total body weight): 1.0 ± 0.1%
Liver (%) (male Wistar strain rats [4]; ratio to total body weight, * p<0.05): 3.9 ± 0.1* %
